Experiments:
[1] = system: IFNγ stimulated STAT1 phosphorylation on Tyr701 (JAK1/2); test: JAK1/2 phospho-STAT1 cellular target modulation assay, IFNγ stimulated human PBMC; assay type: cell-based; settings: IFNγ 10 ng/ml, read-out: Infγ-STAT1 IC50
From the text: (§1) Target modulation was based upon the ability of a compound to inhibit JAK isoform specific phosphorylation of selected substrates. IL-2 stimulated STAT5 phosphorylation on Tyr694 was used to assess JAK1/3 compound selectivity. GM-CSF stimulated STAT5 phosphorylation on Tyr694 was used to assess JAK2 compound selectivity. IFNγ stimulated STAT1 phosphorylation on Tyr701 was used to assess JAK1/2 compound selectivity. For all three assays, human PBMC from frozen stocks were thawed, pelleted, resuspended in complete media (90% RPMI, 10% heat inactivated FBS, 10 mM HEPES, 47 μM 2-ME, pen/strep) and placed in wells of a 96 well V-bottom plate at 200,000 per well in 120 μl complete media. Compounds were added as 15 μl per well of 10× working stock solutions in complete media with 1% DMSO (or medium with 1% DMSO for controls) and placed on a plate shaker in a 37° C. incubator with 5% CO2 for 1 hour with gentle shaking (setting of 3). Stimulation used the addition of soluble cytokines. For the JAK1/3 phospho-STAT5 assay, 15 μl of 10× working stock recombinant human IL-2 was added to a final concentration of 25 ng/ml. For the JAK2 phospho-STAT5 assay, 15 μl of 10× working stock recombinant human GM-CSF was added to a final concentration of 5 ng/ml. For the JAK1/2 phospho-STAT1 assay, 15 μl of 10× working stock of recombinant human IFNγ was added to a final concentration of 10 ng/ml. Plates were then placed back on the plate shaker in the incubator for an additional 5, 5 and 10 minutes respectively upon which the plates were removed from the incubator, sealed with a plate sealer and the cells pelleted at 400×g for 5 minutes. After pelleting, the media was removed by aspiration and the cells were lysed in ELISA specific cell lysis buffer. The levels of phospho-STAT5 were determined using a Phospho (Tyr694)/Total STAT5a,b Whole Cell Lysate kit from Meso Scale Discovery. Levels of phospho-STAT1 were determined using a CST-PathScan Phospho-STAT1 (Tyr701) Sandwich ELISA kit.

[2] = target: JAK1 (Homo sapiens (Human), UniProt P23458); test: JAK1 enzyme activity assay (Z-lyte, Thermo Fisher Selectscreen); assay type: biochemical; settings: 2 μM Tyr 06 peptide, read-out: JAK1 Inhibition IC50
Description: The inhibitory potency of candidate compounds of JAK1 done at Thermo Fisher Scientific in their Selectscreen using a Z-lyte assay. The 2×JAK1/Tyr 06 mixture is prepared in 50 mM HEPES pH 6.5, 0.01% BRIJ-35, 10 mM MgCl2, 1 mM EGTA, 0.02% NaN3. The final 10 μL of the Kinase Reaction consists of 21.2-91.5 ng JAK1 and 2 μM Tyr 06 in 50 mM HEPES pH 7.0, 0.01% BRIJ-35, 10 mM MgCl2, 1 mM EGTA, 0.01% NaN3. After the 1 hour Kinase Reaction incubation, 5 μL of a 1:128 dilution of Development Reagent is added.
Background signal is defined in the absence of enzyme and uninhibited signal is defined in the presence of vehicle (2% DMSO) alone. Compounds were evaluated in an 11 point dose-response ranging from […] to 0.34 nM. IC50 values of compounds are determined using a 4 parameter logistical fit of emission ratio as a function of the concentration of compound.

[3] = system: IL-2 stimulated STAT5 phosphorylation on Tyr694 (JAK1/3); test: JAK1/3 phospho-STAT5 cellular target modulation assay, IL-2 stimulated human PBMC; assay type: cell-based; settings: IL-2 25 ng/ml, read-out: IL2-STAT5 Inhibition IC50
From the text: as §1

[4] = target: JAK3 (a.a. 781-1124) (Homo sapiens (Human), UniProt P52333); test: JAK3 enzyme activity assay (SRCtide phosphorylation, Caliper); assay type: biochemical; settings: 2.5 nM JAK3, 1 μM SRCtide, 1 uM ATP; read-out: JAK3 Inhibition IC50
Description: The activity of JAK3 (a.a. 781-1124, ThermoFisher) was quantified by measuring the phosphorylation of SRCtide (FAM-GEEPLYWSFPAKKK-NH2). Kinase reactions were run in a 384-well Greiner plate with 2% final DMSO concentration under the buffer conditions of 20 mM HEPES, pH 7.5, 10 mM MgCl2, 0.01% BSA, and 0.0005% Tween-20. The kinase reaction components were 2.5 nM JAK3, 1 μM SRCtide peptide and 1 uM ATP. Examples were tested in dose-response starting at 2 μM (11 concentrations, 3-fold serial dilution, duplicate reactions). The reactions were incubated at room temperature for 40 minutes, then stopped by adding a 1:1 volume of 30 mM EDTA in 20 mM HEPES, pH 7.5 (15 mM EDTA final). After the reaction was stopped, the phosphorylated and unphosphorylated peptides were separated and quantified using a Caliper LC3000/EZ-Reader system and HTS Well Analyzer Software (Caliper, A PerkinElmer Company, Hopkinton, Mass.). GraFit (Erithacus Software Ltd., Horley, U.K.) was used to calculate inhibitor potency by fitting dose-response data to the 4-parameter logistical IC50 equation.

Chain of JAK1 (P23458 whole entry): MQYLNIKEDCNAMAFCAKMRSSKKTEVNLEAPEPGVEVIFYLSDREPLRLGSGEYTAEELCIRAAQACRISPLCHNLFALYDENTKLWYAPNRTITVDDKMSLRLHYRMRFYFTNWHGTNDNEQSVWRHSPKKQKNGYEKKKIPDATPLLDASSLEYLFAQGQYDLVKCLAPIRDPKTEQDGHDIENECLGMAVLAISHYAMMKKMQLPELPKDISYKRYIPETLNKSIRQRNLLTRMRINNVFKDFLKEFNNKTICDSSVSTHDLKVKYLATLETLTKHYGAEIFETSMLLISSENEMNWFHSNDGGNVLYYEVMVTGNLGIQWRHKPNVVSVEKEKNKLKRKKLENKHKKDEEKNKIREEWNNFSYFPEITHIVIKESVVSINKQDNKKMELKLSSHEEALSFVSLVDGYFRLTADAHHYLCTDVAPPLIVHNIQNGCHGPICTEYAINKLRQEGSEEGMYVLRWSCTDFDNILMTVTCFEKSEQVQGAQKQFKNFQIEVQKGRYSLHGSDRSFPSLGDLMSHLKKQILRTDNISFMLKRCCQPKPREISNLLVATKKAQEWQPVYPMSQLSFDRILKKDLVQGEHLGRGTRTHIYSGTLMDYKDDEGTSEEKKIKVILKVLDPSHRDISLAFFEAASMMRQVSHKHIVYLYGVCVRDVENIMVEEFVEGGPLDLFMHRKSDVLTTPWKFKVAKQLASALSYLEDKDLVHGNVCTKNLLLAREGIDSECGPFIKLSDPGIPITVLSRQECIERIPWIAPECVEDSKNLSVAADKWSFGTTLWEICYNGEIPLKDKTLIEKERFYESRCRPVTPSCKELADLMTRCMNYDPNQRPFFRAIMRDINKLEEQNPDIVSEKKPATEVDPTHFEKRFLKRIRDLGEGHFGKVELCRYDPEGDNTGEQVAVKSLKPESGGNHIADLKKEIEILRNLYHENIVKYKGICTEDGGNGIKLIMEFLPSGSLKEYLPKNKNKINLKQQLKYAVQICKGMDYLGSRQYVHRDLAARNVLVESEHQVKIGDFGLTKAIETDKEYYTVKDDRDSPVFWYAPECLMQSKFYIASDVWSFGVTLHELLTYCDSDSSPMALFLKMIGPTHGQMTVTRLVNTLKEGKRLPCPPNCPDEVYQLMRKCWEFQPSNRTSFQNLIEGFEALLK
Chain of JAK3 (a.a. 781-1124) (P52333 781-1124): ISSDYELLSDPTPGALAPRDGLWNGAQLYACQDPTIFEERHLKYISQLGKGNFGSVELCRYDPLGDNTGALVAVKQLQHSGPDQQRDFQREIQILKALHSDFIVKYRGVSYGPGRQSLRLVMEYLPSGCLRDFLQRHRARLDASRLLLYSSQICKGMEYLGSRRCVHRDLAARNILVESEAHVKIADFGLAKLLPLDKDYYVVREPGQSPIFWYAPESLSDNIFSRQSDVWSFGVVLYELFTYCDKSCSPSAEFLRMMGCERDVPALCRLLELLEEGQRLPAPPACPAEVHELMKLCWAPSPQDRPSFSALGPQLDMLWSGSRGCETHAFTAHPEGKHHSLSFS

CCOC(=O)c1cnc2[nH]ccc2c1-c1cnn(C2(CC#N)CN(S(=O)(=O)CC)C2)c1 [Example 9, ethyl 4-(1-(3-(cyanomethyl)-1-(ethylsulfonyl)azetidin-3-yl)-1H-pyrazol-4-yl)-1H-pyrrolo[2,3b]pyridine-5-carboxylate]
IC50 [1]: 100 to 1000 nM | IC50 [2]: ≤ 10 nM | IC50 [3]: ≤ 100 nM | IC50 [4]: 10 to 100 nM

CCOC(=O)c1cnc2[nH]ccc2c1-c1cnn(C(CC#N)C2CCCC2)c1 (racemic) [Example 1, ethyl 4-(1-(2-cyano-1-cyclopentylethyl)-1H-pyrazol-4-yl)-1H-pyrrolo[2,3-b]pyridine-5-carboxylate]
IC50 [1]: 100 to 1000 nM | IC50 [2]: ≤ 10 nM | IC50 [3]: 100 to 1000 nM | IC50 [4]: 10 to 100 nM

CCOC(=O)c1cnc2[nH]ccc2c1-c1cnn([C@@H](CC#N)C2CCCC2)c1 (single isomer, unassigned; stereoisomer 2) [Example 17, ethyl 4-(1-(2-cyano-1-cyclopentylethyl)-1H-pyrazol-4-yl)-1H-pyrrolo[2,3-b]pyridine-5-carboxylate stereoisomer 2]
IC50 [1]: 100 to 1000 nM | IC50 [2]: 10 to 100 nM | IC50 [3]: 100 to 1000 nM | IC50 [4]: 10 to 100 nM

CCOC(=O)c1cnc2[nH]ccc2c1-c1cnn([C@H](CC#N)C2CCCC2)c1 (single isomer, unassigned; stereoisomer 1) [Example 16, ethyl 4-(1-(2-cyano-1-cyclopentylethyl)-1H-pyrazol-4-yl)-1H-pyrrolo[2,3-b]pyridine-5-carboxylate stereoisomer 1]
IC50 [1]: 100 to 1000 nM | IC50 [2]: ≤ 10 nM | IC50 [3]: 100 to 1000 nM | IC50 [4]: 10 to 100 nM

CC(C)OC(=O)c1cnc2[nH]ccc2c1-c1cnn([C@@H](CC#N)C2CCCC2)c1 (single isomer, unassigned; enantiomer 2) [Example 19, isopropyl 4-(1-(2-cyano-1-cyclopentylethyl)-1H-pyrazol-4-yl)-1H-pyrrolo[2,3-b]pyridine-5-carboxylate, enantiomer 2]
IC50 [1]: 100 to 1000 nM | IC50 [2]: 10 to 100 nM | IC50 [3]: ≤ 100 nM | IC50 [4]: 10 to 100 nM

CCCOC(=O)c1cnc2[nH]ccc2c1-c1cnn([C@H](CC#N)C2CCCC2)c1 [Example 20, propyl (R)-4-(1-(2-cyano-1-cyclopentylethyl)-1H-pyrazol-4-yl)-1H-pyrrolo[2,3-b]pyridine-5-carboxylate]
IC50 [1]: 100 to 1000 nM | IC50 [2]: ≤ 10 nM | IC50 [3]: ≤ 100 nM | IC50 [4]: 10 to 100 nM

CC(C)OC(=O)c1cnc2[nH]ccc2c1-c1cnn([C@H](CC#N)C2CCCC2)c1 (single isomer, unassigned; enantiomer 1) [Example 18, isopropyl 4-(1-(2-cyano-1-cyclopentylethyl)-1H-pyrazol-4-yl)-1H-pyrrolo[2,3-b]pyridine-5-carboxylate, enantiomer 1]
IC50 [1]: 100 to 1000 nM | IC50 [2]: ≤ 10 nM | IC50 [3]: ≤ 100 nM | IC50 [4]: 10 to 100 nM

From patent US10800775B2, “Pyrazolyl pyrrolo[2,3-b]pyrmidine-5-carboxylate analogs and methods of making the same” (ACLARIS THERAPEUTICS, INC., priority 2017, dated 2020)
